Reference: patent publication US12550899B2, “Topramezone derivative and use thereof” (priority 2023, dated 2026)

How the values were obtained:
Assay in all cases: Laboratory bioactivity efficacy test 2.1 (foliar spray)
Assay type in all cases: in vivo
Settings in all cases: for GR50 / GR90: fresh weight control efficacy 14 days after application
Eclipta prostrata = tested on: Eclipta prostrata
Text: (§1) Refer to the “Pesticides guidelines for laboratory bioactivity tests Part 4: Foliar spray application test for herbicide activity, NY/T 1155.4-2006”.
(§2) • grassy weeds: Setaria viridis, Chloris virgata; • sedge: Cyperus rotundus; • Broadleaf weeds: Amaranthus retroflexus, Chenopodium album, Acalypha australis, Commelina communis, Convolvulus arvensis, Cirsium setosum, and Eclipta prostrata. 2.1.3 Test Conditions
(§3) The soil used for the test was a mixture of surface 20 cm loam and vermiculite, mixed in a volume ratio of 3:1 to form a culture soil. The test corn was cultured in a glass greenhouse with a temperature ranging from 25° C. to 35° C. and under natural light.
(§4) A measured quantity of weed seeds were sown in plastic pots with a diameter of 9 cm, and covered with 1-2 mm of soil. The ports were then placed in enamel trays filled with water, and watered by bottom irrigation. After sowing, the pots were transferred to the glass greenhouse for cultivation and growth.
(§5) Five dosages were set for Compound I, Compound II and the control herbicide Topramezone, which were 3.75, 7.5, 15, 30 and 60 grams of active ingredient per hectare respectively. In addition, a blank control was also prepared.
(§6) The required amount of the herbicide was accurately measured out, an appropriate amount of emulsifier and organic solvent were added to dissolve the herbicide, and then a certain amount of water was added therein until the herbicide was diluted to the required dosage by using the serial dilution method for standby.
(§7) The fresh weight of each treatment was surveyed 14 days after the application of the herbicide. The fresh weight control efficacy was calculated according to the following formula: fresh weight control efficacy (%)=(control fresh weight−treatment fresh weight)/control fresh weight×100.
(§8) A DPS statistical software was used to conduct regression analysis on the logarithmic values of the herbicide dosage and the probit values of the corn fresh weight control efficacy, and the correlation coefficient, GR50, GR90, and the 95% confidence interval were calculated.

Chloris virgata = tested on: Chloris virgata
Text: as §1, §2, §3, §4, §5, §6, §7, §8

Cyperus rotundus = tested on: Cyperus rotundus
Text: as §1, §2, §3, §4, §5, §6, §7, §8

Amaranthus retroflexus = tested on: Amaranthus retroflexus
Text: as §1, §2, §3, §4, §5, §6, §7, §8

Setaria viridis = tested on: Setaria viridis
Text: as §1, §2, §3, §4, §5, §6, §7, §8

Acalypha australis = tested on: Acalypha australis
Text: as §1, §2, §3, §4, §5, §6, §7, §8

Cirsium setosum = tested on: Cirsium setosum
Text: as §1, §2, §3, §4, §5, §6, §7, §8

Chenopodium album = tested on: Chenopodium album
Text: as §1, §2, §3, §4, §5, §6, §7, §8

Commelina communis = tested on: Commelina communis
Text: as §1, §2, §3, §4, §5, §6, §7, §8

Convolvulus arvensis = tested on: Convolvulus arvensis
Text: as §1, §2, §3, §4, §5, §6, §7, §8

Question: What does the source list for `Cc1c(C(=O)c2cnn(C)c2O)ccc(S(C)(=O)=O)c1C1=NOCC1` [Topramezone]?
Answer: GR50 (Eclipta prostrata): 6.33 g a.i./ha; GR90 (Eclipta prostrata): 23.72 g a.i./ha; GR50 (Chloris virgata): 3.33 g a.i./ha; GR90 (Chloris virgata): 15.81 g a.i./ha; GR50 (Cyperus rotundus): 16.11 g a.i./ha; GR90 (Cyperus rotundus): 39.22 g a.i./ha; GR50 (Amaranthus retroflexus): 4.05 g a.i./ha; GR90 (Amaranthus retroflexus): 11.29 g a.i./ha; GR50 (Setaria viridis): 6.72 g a.i./ha; GR90 (Setaria viridis): 19.16 g a.i./ha; GR50 (Acalypha australis): 5.27 g a.i./ha; GR90 (Acalypha australis): 16.92 g a.i./ha; GR50 (Cirsium setosum): 15.89 g a.i./ha; GR90 (Cirsium setosum): 49.41 g a.i./ha; GR50 (Chenopodium album): 3.22 g a.i./ha; GR90 (Chenopodium album): 12.76 g a.i./ha; GR50 (Commelina communis): 14.38 g a.i./ha; GR90 (Commelina communis): 40.29 g a.i./ha; GR50 (Convolvulus arvensis): 4.63 g a.i./ha; GR90 (Convolvulus arvensis): 66.46 g a.i./ha

Question: What does the source list for `COC(=O)OC(C)Oc1c(C(=O)c2ccc(S(C)(=O)=O)c(C3=NOCC3)c2C)cnn1C` (stereo not shown) [Compound I, 1-((4-(3-(4,5-dihydroisoxazol-3-yl)-2-methyl-4-(methylsulfonyl)benzoyl)-1-methyl-1H-pyrazol-5-yl)oxy)ethyl methyl carbonate]?
Answer: Control efficacy compared with Topramezone (in words) (Eclipta prostrata): significantly better control efficacy; Efficacy relative to that of Topramezone (Eclipta prostrata): approximately 2 times; GR50 (Eclipta prostrata): 2.30 g a.i./ha; GR90 (Eclipta prostrata): 11.62 g a.i./ha; Control efficacy compared with Topramezone (in words) (Chloris virgata): better control efficacy; Efficacy relative to that of Topramezone (Chloris virgata): approximately 1.5 times; GR50 (Chloris virgata): 2.25 g a.i./ha; GR90 (Chloris virgata): 10.81 g a.i./ha; Control efficacy compared with Topramezone (in words) (Cyperus rotundus): better control efficacy; GR50 (Cyperus rotundus): 11.78 g a.i./ha; GR90 (Cyperus rotundus): 29.57 g a.i./ha; Control efficacy compared with Topramezone (in words) (Amaranthus retroflexus): significantly better control efficacy; Efficacy relative to that of Topramezone (Amaranthus retroflexus): approximately 2 times; GR50 (Amaranthus retroflexus): 2.86 g a.i./ha; GR90 (Amaranthus retroflexus): 5.64 g a.i./ha; Control efficacy compared with Topramezone (in words) (Setaria viridis): better control efficacy; Efficacy relative to that of Topramezone (Setaria viridis): approximately 1.5 times; GR50 (Setaria viridis): 3.96 g a.i./ha; GR90 (Setaria viridis): 11.42 g a.i./ha; Control efficacy compared with Topramezone (in words) (Acalypha australis): significantly better control efficacy; Efficacy relative to that of Topramezone (Acalypha australis): approximately 2 times; GR50 (Acalypha australis): 2.42 g a.i./ha; GR90 (Acalypha australis): 7.55 g a.i./ha; Control efficacy compared with Topramezone (in words) (Cirsium setosum): significantly better control efficacy; Efficacy relative to that of Topramezone (Cirsium setosum): approximately 2 times; GR50 (Cirsium setosum): 5.56 g a.i./ha; GR90 (Cirsium setosum): 20.60 g a.i./ha; Control efficacy compared with Topramezone (in words) (Chenopodium album): significantly better control efficacy; Efficacy relative to that of Topramezone (Chenopodium album): approximately 2 times; GR50 (Chenopodium album): 1.22 g a.i./ha; GR90 (Chenopodium album): 5.98 g a.i./ha; Control efficacy compared with Topramezone (in words) (Commelina communis): significantly better control efficacy; Efficacy relative to that of Topramezone (Commelina communis): approximately 2 times; GR50 (Commelina communis): 4.98 g a.i./ha; GR90 (Commelina communis): 16.38 g a.i./ha; Control efficacy compared with Topramezone (in words) (Convolvulus arvensis): significantly better control efficacy; Efficacy relative to that of Topramezone (Convolvulus arvensis): approximately 2 times; GR50 (Convolvulus arvensis): 1.81 g a.i./ha; GR90 (Convolvulus arvensis): 31.82 g a.i./ha

Question: How did the GR50 (Eclipta prostrata) turn out when `Cc1c(C(=O)c2cnn(C)c2OC(=O)C(C)(C)C)ccc(S(C)(=O)=O)c1C1=NOCC1` [Compound II, 4-(3-(4,5-dihydroisoxazol-3-yl)-2-methyl-4-(methylsulfonyl)benzoyl)-1-methyl-1H-pyrazol-5-yl pivalate] was run?
Answer: 4.67 g a.i./ha

Question: And the GR90 (Eclipta prostrata)?
Answer: 23.27 g a.i./ha

Question: What about the GR50 (Chloris virgata) of the same molecule?
Answer: 4.41 g a.i./ha

Question: What about the GR90 (Chloris virgata) of the same molecule?
Answer: 15.22 g a.i./ha

Question: And the GR50 (Cyperus rotundus)?
Answer: 15.68 g a.i./ha

Question: And the GR90 (Cyperus rotundus)?
Answer: 39.11 g a.i./ha

Question: What about the GR50 (Amaranthus retroflexus) of the same molecule?
Answer: 4.64 g a.i./ha

Question: What about the GR90 (Amaranthus retroflexus) of the same molecule?
Answer: 11.19 g a.i./ha

Question: What about the GR50 (Setaria viridis) of the same molecule?
Answer: 6.77 g a.i./ha

Question: What about the GR90 (Setaria viridis) of the same molecule?
Answer: 19.04 g a.i./ha

Question: What about the GR50 (Acalypha australis) of the same molecule?
Answer: 6.04 g a.i./ha

Question: And the GR90 (Acalypha australis)?
Answer: 16.46 g a.i./ha

Question: And the GR50 (Cirsium setosum)?
Answer: 15.14 g a.i./ha

Question: What about the GR90 (Cirsium setosum) of the same molecule?
Answer: 48.92 g a.i./ha

Question: And the GR50 (Chenopodium album)?
Answer: 2.83 g a.i./ha

Question: And the GR90 (Chenopodium album)?
Answer: 11.74 g a.i./ha

Question: What about the GR50 (Commelina communis) of the same molecule?
Answer: 13.73 g a.i./ha

Question: What about the GR90 (Commelina communis) of the same molecule?
Answer: 39.85 g a.i./ha

Question: What about the GR50 (Convolvulus arvensis) of the same molecule?
Answer: 7.31 g a.i./ha

Question: What about the GR90 (Convolvulus arvensis) of the same molecule?
Answer: 58.43 g a.i./ha
